Results from PubChem BioAssay (NCI).
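48-hour exposure; five concentrations; linearly interpolated endpoints. TGI denotes the concentration required for complete inhibition of growth.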

Tests used:
Test in all cases: inhibition of tumour cell growth, NCI panel, 48 h
CAKI-1 renal = tested on: CAKI-1 renal
EKVX NSCLC = tested on: EKVX NSCLC
NCI/ADR-RES ovarian = tested on: NCI/ADR-RES ovarian
OVCAR-8 ovarian = tested on: OVCAR-8 ovarian
MDA-MB-231 breast = tested on: MDA-MB-231 breast
T-47D breast = tested on: T-47D breast
MOLT-4 leukemia = tested on: MOLT-4 leukemia
NCI-H460 lung = tested on: NCI-H460 lung
HT29 colon = tested on: HT29 colon
OVCAR-3 ovarian = tested on: OVCAR-3 ovarian
SR leukemia = tested on: SR leukemia
U251 CNS = tested on: U251 CNS
KM12 colon = tested on: KM12 colon
HOP-62 NSCLC = tested on: HOP-62 NSCLC
NCI-H522 lung = tested on: NCI-H522 lung
UACC-257 melanoma = tested on: UACC-257 melanoma
MALME-3M melanoma = tested on: MALME-3M melanoma
SF-539 CNS = tested on: SF-539 CNS
SK-MEL-2 melanoma = tested on: SK-MEL-2 melanoma
IGROV1 ovarian = tested on: IGROV1 ovarian
ACHN renal = tested on: ACHN renal
NCI-H226 lung = tested on: NCI-H226 lung
LOX IMVI melanoma = tested on: LOX IMVI melanoma
HL-60(TB) leukemia = tested on: HL-60(TB) leukemia
SK-OV-3 ovarian = tested on: SK-OV-3 ovarian
HS 578T breast = tested on: HS 578T breast
SNB-19 CNS = tested on: SNB-19 CNS
SK-MEL-5 melanoma = tested on: SK-MEL-5 melanoma
COLO 205 colon = tested on: COLO 205 colon
UO-31 renal = tested on: UO-31 renal
A549 NSCLC = tested on: A549 NSCLC
RPMI-8226 leukemia = tested on: RPMI-8226 leukemia
MDA-MB-435 = tested on: MDA-MB-435
BT-549 breast = tested on: BT-549 breast
SK-MEL-28 melanoma = tested on: SK-MEL-28 melanoma
OVCAR-5 ovarian = tested on: OVCAR-5 ovarian
UACC-62 melanoma = tested on: UACC-62 melanoma
SF-295 CNS = tested on: SF-295 CNS
CCRF-CEM leukemia = tested on: CCRF-CEM leukemia
HOP-92 NSCLC = tested on: HOP-92 NSCLC
MDA-N = tested on: MDA-N
MCF7 breast = tested on: MCF7 breast
NCI-H23 lung = tested on: NCI-H23 lung
786-0 renal = tested on: 786-0 renal
SF-268 CNS = tested on: SF-268 CNS
HCC-2998 colon = tested on: HCC-2998 colon
M14 melanoma = tested on: M14 melanoma
K-562 leukemia = tested on: K-562 leukemia
RXF 393 renal = tested on: RXF 393 renal
DU-145 prostate = tested on: DU-145 prostate
SN12C renal = tested on: SN12C renal
SW-620 colon = tested on: SW-620 colon
HCT-15 colon = tested on: HCT-15 colon
PC-3 prostate = tested on: PC-3 prostate
SNB-75 CNS = tested on: SNB-75 CNS
HCT-116 colon = tested on: HCT-116 colon
TK-10 renal = tested on: TK-10 renal
OVCAR-4 ovarian = tested on: OVCAR-4 ovarian
A498 renal = tested on: A498 renal

Structure (SMILES): CC(=O)OCC(OC(C)=O)C(OC(C)=O)C(/C=N\Nc1nc2ccccc2c(=O)[nH]1)=N\Nc1nc2ccccc2c(=O)[nH]1 (stereo not drawn)
- TGI (CAKI-1 renal): > 100 µM
- TGI (EKVX NSCLC): > 100 µM
- TGI (NCI/ADR-RES ovarian): > 100 µM
- TGI (OVCAR-8 ovarian): > 100 µM
- TGI (MDA-MB-231 breast): > 100 µM
- TGI (T-47D breast): > 100 µM
- TGI (MOLT-4 leukemia): > 100 µM
- TGI (NCI-H460 lung): 47.6 µM
- TGI (HT29 colon): > 100 µM
- TGI (OVCAR-3 ovarian): > 100 µM
- TGI (SR leukemia): > 100 µM
- TGI (U251 CNS): > 100 µM
- TGI (KM12 colon): > 100 µM
- TGI (HOP-62 NSCLC): > 100 µM
- TGI (NCI-H522 lung): > 100 µM
- TGI (UACC-257 melanoma): 34 µM
- TGI (MALME-3M melanoma): > 100 µM
- TGI (SF-539 CNS): > 100 µM
- TGI (SK-MEL-2 melanoma): > 100 µM
- TGI (IGROV1 ovarian): > 100 µM
- TGI (ACHN renal): > 100 µM
- TGI (NCI-H226 lung): > 100 µM
- TGI (LOX IMVI melanoma): > 100 µM
- TGI (HL-60(TB) leukemia): > 100 µM
- TGI (SK-OV-3 ovarian): > 100 µM
- TGI (HS 578T breast): > 100 µM
- TGI (SNB-19 CNS): > 100 µM
- TGI (SK-MEL-5 melanoma): > 100 µM
- TGI (COLO 205 colon): > 100 µM
- TGI (UO-31 renal): > 100 µM
- TGI (A549 NSCLC): > 100 µM
- TGI (RPMI-8226 leukemia): > 100 µM
- TGI (MDA-MB-435): > 100 µM
- TGI (BT-549 breast): > 100 µM
- TGI (SK-MEL-28 melanoma): > 100 µM
- TGI (OVCAR-5 ovarian): > 100 µM
- TGI (UACC-62 melanoma): > 100 µM
- TGI (SF-295 CNS): > 100 µM
- TGI (CCRF-CEM leukemia): > 100 µM
- TGI (HOP-92 NSCLC): > 100 µM
- TGI (MDA-N): > 100 µM
- TGI (MCF7 breast): > 100 µM
- TGI (NCI-H23 lung): > 100 µM
- TGI (786-0 renal): > 100 µM
- TGI (SF-268 CNS): > 100 µM
- TGI (HCC-2998 colon): 36.3 µM
- TGI (M14 melanoma): > 100 µM
- TGI (K-562 leukemia): > 100 µM
- TGI (RXF 393 renal): > 100 µM
- TGI (DU-145 prostate): > 100 µM
- TGI (SN12C renal): > 100 µM
- TGI (SW-620 colon): > 100 µM
- TGI (HCT-15 colon): > 100 µM
- TGI (PC-3 prostate): > 100 µM
- TGI (SNB-75 CNS): > 100 µM
- TGI (HCT-116 colon): > 100 µM

Structure (SMILES): CCOc1ccc2nc3nc(=O)[nH]c(C)c3c(NCCCN(CC)CC)c2c1
- TGI (CAKI-1 renal): > 100 µM
- TGI (EKVX NSCLC): > 100 µM
- TGI (NCI/ADR-RES ovarian): > 100 µM
- TGI (OVCAR-8 ovarian): > 100 µM
- TGI (MDA-MB-231 breast): > 100 µM
- TGI (T-47D breast): > 100 µM
- TGI (MOLT-4 leukemia): > 100 µM
- TGI (NCI-H460 lung): > 100 µM
- TGI (HT29 colon): > 100 µM
- TGI (OVCAR-3 ovarian): > 100 µM
- TGI (U251 CNS): > 100 µM
- TGI (KM12 colon): > 100 µM
- TGI (HOP-62 NSCLC): > 100 µM
- TGI (NCI-H522 lung): > 100 µM
- TGI (UACC-257 melanoma): > 100 µM
- TGI (TK-10 renal): > 100 µM
- TGI (MALME-3M melanoma): > 100 µM
- TGI (SF-539 CNS): > 100 µM
- TGI (SK-MEL-2 melanoma): > 100 µM
- TGI (IGROV1 ovarian): > 100 µM
- TGI (ACHN renal): > 100 µM
- TGI (NCI-H226 lung): > 100 µM
- TGI (LOX IMVI melanoma): > 100 µM
- TGI (HL-60(TB) leukemia): > 100 µM
- TGI (SK-OV-3 ovarian): > 100 µM
- TGI (OVCAR-4 ovarian): > 100 µM
- TGI (HS 578T breast): > 100 µM
- TGI (SNB-19 CNS): > 100 µM
- TGI (SK-MEL-5 melanoma): > 100 µM
- TGI (COLO 205 colon): > 100 µM
- TGI (UO-31 renal): > 100 µM
- TGI (A549 NSCLC): > 100 µM
- TGI (MDA-MB-435): > 100 µM
- TGI (A498 renal): > 100 µM
- TGI (BT-549 breast): > 100 µM
- TGI (SK-MEL-28 melanoma): > 100 µM
- TGI (OVCAR-5 ovarian): > 100 µM
- TGI (UACC-62 melanoma): > 100 µM
- TGI (SF-295 CNS): > 100 µM
- TGI (CCRF-CEM leukemia): > 100 µM
- TGI (HOP-92 NSCLC): > 100 µM
- TGI (MDA-N): > 100 µM
- TGI (MCF7 breast): > 100 µM
- TGI (NCI-H23 lung): > 100 µM
- TGI (786-0 renal): > 100 µM
- TGI (SF-268 CNS): > 100 µM
- TGI (HCC-2998 colon): > 100 µM
- TGI (M14 melanoma): > 100 µM
- TGI (K-562 leukemia): > 100 µM
- TGI (RXF 393 renal): > 100 µM
- TGI (DU-145 prostate): > 100 µM
- TGI (SN12C renal): > 100 µM
- TGI (SW-620 colon): > 100 µM
- TGI (HCT-15 colon): > 100 µM
- TGI (PC-3 prostate): > 100 µM
- TGI (SNB-75 CNS): > 100 µM
- TGI (HCT-116 colon): > 100 µM
